Data: patent publication US11926645B2, “Compounds and methods for treatment of viral infections” (priority 2020, dated 2024)
Where two headings read alike, the source gives them in different places.

What was measured:
SARS-CoV-2-Nluc viruses = assay: microbe, parasite or virus in culture; format: cell-based
in vitro [1] = format: cell-based; conditions: human
Description: The cytotoxicity of compounds was determined in A549-hACE2 cells in the following manner. Compounds (200 nL) were spotted onto 384-well Grenier plates prior to seeding 5000 A549-hACE2 cells/well in a volume of 40 μL culture medium. The plates were incubated at 37° C. for 48 hours with 5% CO2. On day 2, 40 μL of CellTiter-Glo (Promega) was added and mixed 5 times.

[2] = test system: SARS-CoV-2 SA/2020 B.1.351; assay: microbe, parasite or virus in culture; format: cell-based; conditions: Severe acute respiratory syndrome coronavirus 2, Vero C1008
CES1 = target: T1, CES1 (Homo sapiens, UniProt P23141); assay: CES1/2 stability, CES1; format: in vitro ADME; conditions: CES1 Supersome preparation; Supersome preparations, CES 1.5 mg/ml, 2 μM substrate, pH 7.4, 37° C.; read-out: CES1 T1/2
T1 construct: purchased
T1 sequence (P23141 18-567): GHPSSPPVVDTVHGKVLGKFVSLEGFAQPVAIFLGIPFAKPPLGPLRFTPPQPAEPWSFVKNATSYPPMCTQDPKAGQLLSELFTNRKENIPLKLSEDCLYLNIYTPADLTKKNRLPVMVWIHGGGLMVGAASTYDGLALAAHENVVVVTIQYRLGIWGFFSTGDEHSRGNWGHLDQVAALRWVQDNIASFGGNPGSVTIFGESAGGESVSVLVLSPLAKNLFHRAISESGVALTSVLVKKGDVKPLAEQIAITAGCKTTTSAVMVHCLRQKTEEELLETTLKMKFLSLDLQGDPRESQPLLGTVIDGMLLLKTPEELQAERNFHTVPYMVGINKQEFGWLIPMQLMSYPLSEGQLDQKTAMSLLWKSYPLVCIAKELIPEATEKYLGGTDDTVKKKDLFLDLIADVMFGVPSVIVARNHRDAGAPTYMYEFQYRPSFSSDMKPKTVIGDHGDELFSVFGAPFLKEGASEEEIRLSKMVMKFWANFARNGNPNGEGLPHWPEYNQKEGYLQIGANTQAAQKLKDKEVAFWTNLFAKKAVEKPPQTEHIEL
Description: (§1) Test compounds or positive control substrates (oseltamivir for CES1 enzymes or procaine for CES2) were incubated with individual Supersome preparations (final CES concentration 1.5 mg/ml) in 0.1 M potassium phosphate buffer (pH 7.4) at 37° C. Substrates were added to a final concentration of 2 μM to initiate the reaction. The final incubation volume was 250 μL. Aliquots were removed after incubation for 0, 10, 30, 60 and 120 min. The reactions were stopped by the addition of IS/Q. Following protein precipitation and centrifugation, 150 μL of supernatant was diluted with an equal volume of water prior to LC-MS analysis. For procaine 150 μL of supernatant was dried down and reconstituted with 250 μL water. All samples were analyzed by LC-MS and the PAR values were used for quantification.

CES2 = target: T2, CES2 (Homo sapiens, UniProt O00748); assay: CES1/2 stability, CES2; format: in vitro ADME; conditions: CES2 Supersome preparation; Supersome preparations, CES 1.5 mg/ml, 2 μM substrate, pH 7.4, 37° C.; read-out: CES2 T1/2
T2 construct: purchased
T2 sequence (O00748 27-559): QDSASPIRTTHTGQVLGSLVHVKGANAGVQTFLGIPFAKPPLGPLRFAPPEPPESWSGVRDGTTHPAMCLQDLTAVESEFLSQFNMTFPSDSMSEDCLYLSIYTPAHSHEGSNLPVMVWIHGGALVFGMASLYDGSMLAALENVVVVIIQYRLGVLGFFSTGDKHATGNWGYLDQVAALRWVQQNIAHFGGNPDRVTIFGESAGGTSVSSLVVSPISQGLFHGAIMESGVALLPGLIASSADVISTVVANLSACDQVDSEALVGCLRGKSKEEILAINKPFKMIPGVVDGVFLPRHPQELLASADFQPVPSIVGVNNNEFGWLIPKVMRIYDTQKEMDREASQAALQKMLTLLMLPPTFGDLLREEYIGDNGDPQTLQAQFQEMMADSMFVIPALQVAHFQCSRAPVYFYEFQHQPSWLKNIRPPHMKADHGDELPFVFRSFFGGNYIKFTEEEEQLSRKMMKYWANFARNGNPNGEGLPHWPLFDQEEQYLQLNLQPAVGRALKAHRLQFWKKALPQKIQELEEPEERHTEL
Description: as §1

[3] = in vivo, po
in vitro [4] = conditions: African green monkey

Q: What does the source list for `CC(C)C(=O)OC[C@H]1O[C@@](C#N)(c2ccc3c(N)ncnn23)[C@H](OC(=O)C(C)C)[C@@H]1OC(=O)C(C)C` [Compound 1, (2R,3R,4R,5R)-2-(4-aminopyrrolo[2,1-f][1,2,4]triazin-7-yl)-2-cyano-5-((isobutyryloxy)methyl)tetrahydrofuran-3,4-diyl bis(2-methylpropanoate)]?
A: EC50 (SARS-CoV-2-Nluc viruses; Severe acute respiratory syndrome coronavirus 2, 48 h, read-out: SARS-CoV2 EC50): 2700 nM; EC50 (SARS-CoV-2-Nluc viruses; Severe acute respiratory syndrome coronavirus 2, host cells A549-ACE2, read-out: EC50, WA1/2020-nano luciferase): 980 nM; CC50 at 48 h (in vitro [1]): > 50000 nM; CC50 (in vitro [1]; host cells A549-ACE2, read-out: CC50, A549-ACE2): > 50000 nM; EC50 [2]: 110 nM; half-life at 2 μM (CES1): < 1 min; half-life at 2 μM (CES2): < 1 min; anabolism to bioactive Reference Compound B (in words) [3]: efficient anabolism to bioactive Reference Compound B; CC50 (in vitro [4]): > 100000 nM
